Test results: article PMC8581430, “Peptide ligands targeting FGF receptors promote recovery from dorsal root crush injury via AKT/mTOR signaling” (Theranostics, 2021)

Key:
[1] = test system: FGFR (phosphorylated) in DRG explants; assay: Western blot of phosphorylated FGFR in ex vivo DRG explants; format: cell-based, Sprague-Dawley rat; settings: CH02 20 μM + BGJ398 2 μM, 4 h, n = 3
Method: Figure 5 Role of FGFR signaling in response to the CH02 peptide on promoting nerve regeneration. (A) Western blot analysis of phosphorylated FGFR expression in C5-T1 DRGs subjected to dorsal root crush injury, followed by CH02 treatment (20 μM). DRGs were collected after 3 days. Glyceraldehyde-3-phosphate dehydrogenase (GAPDH) antibodies were used as the loading control. (B) Western blot analysis of phosphorylated FGFR expression in ex vivo cultured DRG explants of adult Sprague-Dawley rats in response to CH02 treatment at different induction times. […] (D-F) Quantification of p-FGFR expression levels in panels A, B, and C. n = 3 independent experiments. Relative protein expression levels were quantified after normalization to FGFR2 or FGFR1. […] (H) Quantification of axon growth in DRG explants (G) using Neurite-J software (n = 5 for each condition; *control vs. CH02; #control vs. BGJ398; **p < 0.01, ***p < 0.001, ****p < 0.0001, #p < 0.05, ##p < 0.01 by two-way ANOVA with Dunnett's test; mean ± SEM). […] Images of random neurons were acquired by fluorescence microscopy. […] (J) Quantification of the longest axon length of each neuron randomly selected from (I) using Image-Pro Plus 6.0 software (n = 100 for each condition; *p < 0.05, **p < 0.01, ****p < 0.0001 by one-way ANOVA with Dunnett's; ns, not significant; mean ± SD). […]

[2] = test system: mTOR (phosphorylated) in DRG explants; assay: Western blot of phosphorylated mTOR in DRG explants; format: cell-based, rat; settings: CH02 20 μM + inhibitor 2 μM, 4 h, n = 3
Method: Figure 7 CH02-stimulated activation of AKT/mTOR signaling is required for growth potential augmentation of axons. (A) Immunoblot analysis showing phosphorylated mTOR expression in C5-T1 DRGs subjected to dorsal root injury followed by CH02 treatment (20 μM). DRG samples were collected 3 days post-treatment. (B) Quantification of p-mTOR expression levels in A. n = 3 independent experiments. Relative protein expression levels were quantified after normalization to mTOR. Values are means ± SEM. (C) Immunoblot showing phosphorylated mTOR expression in DRG explants pretreated with DMSO (control), CH02 (20 μM), CH02+AKTi (2 μM) or CH02+ U0126 (2 μM) for 4 h. (D) Quantification of the p-mTOR expression from C. n = 3 independent experiments. Relative protein expression levels were quantified after normalization to mTOR. […] The axon is shown in fluorescence (β3-tubulin) images. […] (F) Quantification of the longest axon length of each neuron from (E) (n = 62 for each condition; *Control vs. CH02, CH02+Torin1, Torin1; # CH02 vs. CH02+Torin1; **p < 0.01, ****p < 0.0001, #p < 0.05 by one-way ANOVA with Dunnett's test; ns, not significant; mean ± SD). […] (H) Quantification of axon growth in DRG explants from (G) using Neurite-J software (n = 4 for each condition; *control vs. CH02, CH02+Torin1, Torin1; *p < 0.05, **p < 0.01, ***p < 0.001, ****p < 0.0001 by two-way ANOVA with Dunnett's test; mean ± SEM). […]

CCN1CCN(c2ccc(Nc3cc(N(C)C(=O)Nc4c(Cl)c(OC)cc(OC)c4Cl)ncn3)cc2)CC1 [BGJ398] was tested, and the “effect of inhibitor on CH02-upregulated phosphorylated FGFR” value [1] was “counteracted CH02 effects on upregulated phosphorylated FGFR levels”.

For N#CC(=C(/N)Sc1ccccc1N)/C(C#N)=C(/N)Sc1ccccc1N [U0126], the “effect of inhibitor on CH02-induced phosphorylated mTOR” value [2] was “had little effect”.
